In ChEMBL document CHEMBL1159068, “Discovery and SAR of small molecule PAR1 antagonists” (Bioorg Med Chem Lett, 2010):

Tests used:
[1] = target: T1, Proteinase-activated receptor 1 (Homo sapiens) (UniProt P25116); assay: Antagonist activity at PAR1 expressed in CHO cells assessed as inhibition of SFLLR-induced intracellular calcium release at 10 uM; format: functional, cell-based
T1 sequence (whole entry): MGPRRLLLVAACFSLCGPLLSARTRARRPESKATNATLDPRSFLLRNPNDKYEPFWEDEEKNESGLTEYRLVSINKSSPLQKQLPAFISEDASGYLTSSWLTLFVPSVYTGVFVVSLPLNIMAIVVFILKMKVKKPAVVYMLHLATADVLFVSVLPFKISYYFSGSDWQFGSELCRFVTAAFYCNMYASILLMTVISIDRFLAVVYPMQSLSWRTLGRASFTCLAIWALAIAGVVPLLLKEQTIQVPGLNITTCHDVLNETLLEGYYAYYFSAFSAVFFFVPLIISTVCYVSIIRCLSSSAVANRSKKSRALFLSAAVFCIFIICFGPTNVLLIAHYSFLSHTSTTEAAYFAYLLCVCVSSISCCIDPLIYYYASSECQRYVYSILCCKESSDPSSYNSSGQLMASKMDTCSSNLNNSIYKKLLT

Platelet = assay: Inhibition of SFLLR-induced aggregation in human platelets; format: functional
[2] = Metabolic stability in human liver microsomes assessed as parent compound remaining after 60 mins; format: ADME, Microsome; conditions: read-out: Stability
[3] = Metabolic stability in rat liver microsomes assessed as parent compound remaining after 60 mins; format: ADME, Microsome; conditions: read-out: Stability
Rattus norvegicus = assay: Antithrombotic activity in rat arterio-venous shunt model of thrombosis assessed as increase in occlusion time at 1.25 mg/kg, iv; format: functional
[4] = target: T1, Proteinase-activated receptor 1 (Homo sapiens); assay: Antagonist activity at PAR1 expressed in CHO cells assessed as inhibition of SFLLR-induced intracellular calcium release; format: functional, cell-based

Row | SMILES | inhibition [1] [%] | pKb (Platelet) | remaining at 1 h [2] [%] | remaining at 1 h [3] [%] | Activity (Rattus norvegicus) [%] | pKb [4]
1 | CCCCCSC(C(OCC)c1ccc(Cl)cc1)n1ccnc1 (stereo not drawn) | 19 | – | – | – | – | –
2 | CCOC(c1ccc(C(F)(F)F)cc1)C(SC(C)(C)C)n1ccnc1 (stereo not drawn) | 100 | 5.38 | – | – | – | –
3 | CCOC(c1ccc(Cl)cc1)C(SC(C)(C)C)n1cccn1 (stereo not drawn) | 0 | – | – | – | – | –
4 | CCOC(c1ccc(Cl)cc1)C(SC(C)(C)C)n1ccnc1C (stereo not drawn) | 63 | – | – | – | – | –
5 | CCOC(c1ccc(Cl)cc1)C(n1ccnc1)[S+]([O-])C(C)(C)C (stereo not drawn) | 15 | – | 59 | 39 | – | –
6 | CCOC(c1ccc(Cl)cc1)C(SC(C)(C)C)n1ccnc1 (stereo not drawn) | 99 | 5.05 | – | – | – | –
7 | CCOC(c1ccc(Cl)cc1)C(SC(C)(C)C)n1cnc(C)c1 (stereo not drawn) | 92 | 5.36 | – | – | – | –
8 | CCOC(c1ccc(Br)cc1)C(SC(C)(C)C)n1ccnc1 (stereo not drawn) | 100 | 5.06 | – | – | – | –
9 | CCOC(c1ccc(Cl)cc1Cl)C(SC(C)(C)C)n1cnc(C)c1 (stereo not drawn) | 93 | 5.84 | – | – | – | –
10 | CCOC(c1ccc(Cl)cc1)C(SC(C)(C)C)n1cnc(C)c1C (stereo not drawn) | 64 | – | – | – | – | –
11 | CCCOC(c1ccc(Cl)cc1)C(SC(C)(C)C)n1cnc(C)c1 (stereo not drawn) | 99 | 5.71 | 28 | 0 | 45 | 5.51
12 | CCOC(c1ccc(Cl)cc1)C(SC(C)(C)C)n1cncc1Cl (stereo not drawn) | 59 | – | – | – | – | –
13 | CCOC(c1ccc(Cl)cc1)C(SC(C)(C)C)n1cnc(Cl)c1 (stereo not drawn) | 96 | 4.6 | – | – | – | –
14 | CCOC(c1ccc(Cl)cc1)C(SC(C)(C)C)n1cncn1 (stereo not drawn) | 99 | 4.64 | – | – | – | –
15 | CCOC(c1ccc(Cl)cc1)C(SC(C)(C)C)n1cnnc1 (stereo not drawn) | 34 | – | – | – | – | –
16 | CCCOC(c1ccc(Cl)cc1)C(SC(C)(C)C)n1ccnc1 (stereo not drawn) | 96 | 5.01 | – | – | – | –
17 | CCOC(c1ccc(Cl)cc1)C(SC(C)(C)C)n1cnc(C(F)(F)F)c1 (stereo not drawn) | 20 | – | – | – | – | –
18 | CCOC(c1ccc(Cl)cc1)C(n1ccnc1)S(=O)(=O)C(C)(C)C (stereo not drawn) | 13 | – | 35 | 47 | – | –
19 | CCCCSC(C(OCC)c1ccc(Cl)cc1)n1ccnc1 (stereo not drawn) | 76 | 4.58 | – | – | – | –
20 | CCCOC(c1ccc(F)cc1)C(OC(C)(C)C)n1ccnc1 (stereo not drawn) | 18 | – | – | – | – | –
21 | CCOC(c1ccc(Cl)cc1)C(CC(C)(C)C)n1ccnc1 (stereo not drawn) | 74 | 4.12 | 57 | 3 | – | –
22 | CCCOC(c1ccc(Cl)c(Cl)c1)C(OC(C)(C)C)n1ccnc1 (stereo not drawn) | 93 | 5.04 | – | – | – | –
23 | CCOC(c1ccccc1Cl)C(SC(C)(C)C)n1cnc(C)c1 (stereo not drawn) | 100 | 5.21 | – | – | – | –

Row | SMILES | inhibition [1] [%] | pKb (Platelet) | remaining at 1 h [2] [%] | remaining at 1 h [3] [%] | Activity (Rattus norvegicus) [%] | pKb [4]
24 | CCCOC(c1ccc(Br)cc1)C(SC(C)(C)C)n1cnc(C)c1 (stereo not drawn) | 76 | 5.99 | 23 | 0 | 0 | –
25 | CCOC(c1ccc2c(c1)OCCO2)C(SC(C)(C)C)n1ccnc1 (stereo not drawn) | 88 | 4.79 | – | – | – | –
26 | CCOC(c1ccc(C(=O)OC)cc1)C(SC(C)(C)C)n1ccnc1 (stereo not drawn) | 37 | – | – | – | – | –
27 | CCOC(c1ccc(C(F)(F)F)cc1)C(OC(C)(C)C)n1cnc(C)c1 (stereo not drawn) | 98 | 5.2 | – | – | – | –
28 | CCCOC(c1ccc(Cl)cc1Cl)C(SC(C)(C)C)n1cnc(C)c1 (stereo not drawn) | 88 | 5.95 | 28 | 2 | 7 | –
29 | CCCCOC(c1ccc(Cl)cc1)C(SC(C)(C)C)n1ccnc1 (stereo not drawn) | 33 | – | – | – | – | –
30 | CCOC(c1ccc(Cl)cc1)C(SC1CCCCC1)n1ccnc1 (stereo not drawn) | 3 | – | – | – | – | –
31 | CCOC(c1ccc(Br)cc1)C(SC(C)(C)C)n1cnc(C)c1 (stereo not drawn) | 100 | 5.73 | – | – | – | –
32 | CC(C)(C)SC(C(OCc1ccccc1)c1ccc(Cl)cc1)n1ccnc1 (stereo not drawn) | 23 | – | – | – | – | –
33 | CCOC(c1ccccc1[N+](=O)[O-])C(SC(C)(C)C)n1ccnc1 (stereo not drawn) | 33 | – | – | – | – | –
34 | CCOC(c1cccc(Cl)c1)C(SC(C)(C)C)n1cnc(C)c1 (stereo not drawn) | 100 | 4.96 | – | – | – | –
35 | COC(c1ccc(Cl)cc1)C(SC(C)(C)C)n1cnc(C)c1 (stereo not drawn) | 96 | 4.42 | – | – | – | –
36 | CCOC(c1ccc2sccc2c1)C(SC(C)(C)C)n1ccnc1 (stereo not drawn) | 98 | 5.2 | – | – | – | –
37 | CCOC(c1ccc(Cl)cc1Cl)C(OC(C)(C)C)n1cnc(C)c1 (stereo not drawn) | 98 | 5.32 | 57 | 3 | 0 | –
38 | CCOC(c1ccccc1)C(SC(C)(C)C)n1ccnc1 (stereo not drawn) | 92 | 4.46 | – | – | – | –
39 | CCOC(c1ccc(Cl)cc1)C(SC(C)C)n1ccnc1 (stereo not drawn) | 40 | – | – | – | – | –
40 | COC(c1ccc(Cl)cc1)C(SC(C)(C)C)n1ccnc1 (stereo not drawn) | 95 | 5.24 | – | – | – | –
41 | CCOC(c1ccc(Cl)cc1)C(OC(C)(C)C)n1ccnc1 (stereo not drawn) | 85 | 4.54 | 74 | 25 | 0 | –
42 | CCCOC(c1ccc(Cl)c(Cl)c1)C(OC(C)(C)C)n1cnc(C)c1 (stereo not drawn) | 81 | 5.73 | 23 | 3 | 43 | –
43 | CC(C)(C)SC(C(O)c1ccc(Cl)cc1)n1ccnc1 (stereo not drawn) | 11 | – | – | – | – | –
44 | CCOC(c1cccc(OC)c1)C(SC(C)(C)C)n1ccnc1 (stereo not drawn) | 76 | 0 | – | – | – | –
45 | CCCOC(c1ccccc1Cl)C(SC(C)(C)C)n1cnc(C)c1 (stereo not drawn) | 97 | 5.14 | – | – | – | –
